Article PMC9033217, “Synthesis, characterization and biological evaluation of dipicolylamine sulfonamide derivatized platinum complexes as potential anticancer agents” (RSC Advances, 2021)

Assays:
[1] = tested on: human breast cancer cells (MCF-7); test: Antiproliferative activity / cytotoxicity by sulforhodamine B assay in MCF-7 cells; format: cell-based; conditions: for IC50: MCF7, MCF-7 human breast cancer cells, 24 hours exposure, sulforhodamine B assay, triplicate
Procedure: (§1) The ligands and corresponding metal complexes were investigated for their cytotoxicity against MCF-7 (breast cancer) cells and MCF-10A (normal human breast) cells. Cells were cultured in 96-well culture plates and exposed to 12.5 μg ml^−1, 25 μg ml^−1, 50 μg ml^−1 and 100 μg ml^−1 concentrations of ligands and complexes for 24 hours and cytotoxicity was assessed by sulforhodamine B assay. All exposures were carried out in triplicate. Briefly, the cell supernatant was completely removed and washed with phosphate buffer solution. Trichloroacetic acid (50%, […]) was added on top of fetal bovine serum-free fresh medium (200 μl) to make final concentration of 10% trichloroacetic acid and was incubated at 4 °C for one hour prior to the SRB assay. The plates were then washed with five washing cycles with water and dried completely. An aliquot of 100 μl of 0.4% sulforhodamine B dissolved in 1% trichloroacetic acid, was added to each well, and was allowed to stain for 15 minutes. The plates were again washed with five washing cycles to remove unbound dye using 1% (vol/vol) acetic acid after removing the stain. The protein bound dye was solubilized with trisbase (10 mM, pH 7.5, 200 μl), after air drying. The plates were then shaken for 60 minutes to homogenize the dye solution. The absorbance was then measured at 540 nm using Synergy HTBioTek microplate reader. The percentage viability was calculated by the equation given below.1 [drawing 1]
(§2) Three ligands and three novel complexes were assayed for their antiproliferative activity in human breast cancer cells (MCF-7) and normal human breast cells (MCF-10A). In this study, the cell lines were exposed to synthesized compounds in a concentration gradient up to […] and the half maximal inhibitory concentration (IC50) was determined for each compound. Cytotoxicity was measured with sulforhodamine B assay.

[2] = tested on: normal human breast cells (MCF-10A); test: Antiproliferative activity / cytotoxicity by sulforhodamine B assay in MCF-10A cells; format: cell-based; conditions: MCF-10A normal human breast cells, 24 hours exposure, triplicate
Procedure: as §1, §2

For `O=S(=O)(c1cccc2ccccc12)N(Cc1ccccn1)Cc1ccccn1` [N(SO2(1-nap))dpa], the “shape of cytotoxicity curve” value ([1]; Fig. S3, IC50 graphs against MCF-7) was “biphasic cytotoxicity curve”, the IC50 [1] was 92 ± 0.06 µM and the IC50 [2] was 1583 ± 0.04 µM.
Molecule `O=S(=O)(c1ccc2ccccc2c1)N(Cc1ccccn1)Cc1ccccn1` [N(SO2(2-nap))dpa] has an IC50 [1] of 18.1 ± 0.1 µM and an IC50 [2] of 581 ± 0.04 µM.
With `O=S(=O)(N1CCCCC1)N(Cc1ccccn1)Cc1ccccn1` [N(SO2pip)dpa] the IC50 [1] was 21.2 ± 0.1 µM and the IC50 [2] was 948.5 ± 0.04 µM.
